# Measured values published in US20070208077A1, “Adiponectin Enhancer” (priority 2004, published 2007).
# Values joined by “and” are separate entries in the source; they are usually repeats but may differ in a detail not shown here. Identical values can stand only once.
# Experiments:
# [1] = test system: 3T3-L1 cells; assay: Effect of inducing size reduction of adipocytes in pre-differentiated 3T3-L1 cell cultures; assay type: cell-based, mouse; details: sesamin 50 μM, 3T3-L1 cells pre-differentiated to adipocytes, 8 days of culturing, vs control
# [2] = test system: adiponectin mRNA; assay: Cellular adiponectin mRNA level by quantitative RT-PCR in 3T3-L1 adipocytes; assay type: cell-based, mouse; details: sesamin 50 μM, 8 days of culturing
# Procedure: (§1) Mouse-derived 3T3-L1 cells were treated for 42 hours in culturing solution containing insulin, dexamethasone and isobutylxanthine, for differentiation to adipocytes. The culture solution was removed and immediately combined with sesamin-free culturing solution (control) or culturing solution containing sesamin at a final concentration of 50 μM (sesamin), and after culturing for 48 hours, the culture solution was exchanged and culturing was continued for 6 days. The cell culturing was carried out in an incubator controlled to 5% CO2 gas-95% air at a temperature of 37° C. The cellular mRNA levels for adiponectin and TNFα were measured by quantitative RT-PCR using CYBR-Green (BMC Biotechnol. 3, 18, 2003).
# [3] = test system: TNFα mRNA; assay: Cellular TNFα mRNA level by quantitative RT-PCR in 3T3-L1 adipocytes; assay type: cell-based, mouse; details: sesamin 50 μM, 8 days of culturing, vs control
# Procedure: as §1
# [4] = test system: adiponectin; assay: Adiponectin production by 3T3-L1 adipocytes, ELISA of culture solution; assay type: cell-based, mouse; details: sesamin 50 μM, vs control
# Procedure: as §1, with “The” for “The cellular mRNA levels for”, “concentrations in the culture solutions” for “and TNFα”, “Enzyme-Linked ImmunoSorbent Assay (Mouse/Rat Adiponectin ELISA Kit, Otsuka Pharmaceutical).” for “quantitative RT-PCR using CYBR-Green (BMC Biotechnol. 3, 18, 2003).”
# [5] = test system: Zucker fatty rats; assay: Plasma adiponectin concentration of Zucker fatty rats, ELISA; assay type: in vivo, rat; details: male Zucker fatty rats, 0.1% sesamin in AIN-93G feed for four weeks, after overnight starving; control feed 6.06 ± 0.48
# Procedure: The rats were divided into two groups with five rats per group, with the first group being freely given AIN-93G (growth stage feed, product of Nihon Crea) as the control group and the second group being freely given feed comprising 0.1% sesamin added to AIN-93G, for a four week period. After four weeks, blood was sampled after overnight starving, and the plasma was separated. The plasma adiponectin concentrations were assayed using an Enzyme-Linked ImmunoSorbent Assay (Mouse/Rat Adiponectin ELISA Kit, product of Otsuka Pharmaceutical).
smiles,measurement,setting,value
c1cc2c(cc1[C@H]1OC[C@H]3[C@@H]1CO[C@@H]3c1ccc3c(c1)OCO3)OCO2 [sesamin],influence on adipocyte size,[1],numerous small adipocytes
same,"adiponectin mRNA levels in the adipocytes, increase with respect to the control group",[2],7 fold
same,TNFα mRNA levels in the adipocytes,[3],decreased
same,increase of adiponectin concentration in the cell cultured medium,[4],1.6 fold
same,Plasma adiponectin,[5],6.53 µg/mL and 6.53 ± 0.54 µg/mL
